This is an account of results in a melting point compilation (Tetko et al.; mined from patent text by program, amines drawn as free bases though some values may be those of a salt).

Bounds are passed on as bounds.

In turn, `COc1cc(C2C3=C(COC3=O)Nc3ccc4nc(C)sc4c32)ccc1[N+](=O)[O-]` (configuration not stated) showed a melting point of 190 to 191 °C.

Consider `N#Cc1ccc(-c2nc(-c3ccc(F)cc3)c(-c3ccnc4ccccc34)[nH]2)cc1`, for which the melting point is 294 to 295 °C.

On to `CCOC(=O)c1c(O)ncnc1CC`, for which the melting point was 84.5 to 86 °C.

Compound `O=C1CCCCC1C(C[N+](=O)[O-])c1ccc(F)cc1` (racemic) registered a melting point of 84 to 85 °C.

On to `COP(=O)(OC)C(=O)Cc1ccccc1`, for which the melting point fell in the range of 117 to 122 °C.

Regarding `COc1cc(Cl)ccc1-c1nc2cc3c(cc2[nH]1)C(C)(C)CC(=O)N3`, the melting point was in the range of 300 to 303 °C.

`O=c1[nH]c2ccccc2c2c1CNCC2` came in with a melting point of 292 to 295 °C.

Turning to `O=C(CCl)Nc1nc2cc3nc(NC(=O)CCl)sc3cc2s1`, the melting point is 330 °C.

On to `O=Cc1ccc(C=CC(=O)N2CCc3c([nH]c4ccccc34)C2c2ccc3c(c2)OCO3)cc1` (configuration not stated), for which the melting point stood at 208 °C.

Turning to `Nn1cnc2cc(C(F)(F)F)ccc21`, the melting point is 140 to 142 °C.

With `COc1ccc2ccc(N3C(=O)c4ccccc4C3OCC(=O)CC(C)C)nc2n1` (configuration not stated), the melting point is 120 °C.

`Cc1nc(C)c(Cl)c(NCc2nccc(CNCCO)c2Cl)n1` displayed a melting point of 162 to 165 °C.

Compound `Cn1c(=O)cc(-c2cccc(Cl)c2)c2cccnc21` had a melting point of 168 to 170 °C.

As for `Nc1cc(-c2ccncc2)cc2nc(-c3ccccc3)nn12`, the melting point was 207 to 210 °C.

As for `Cc1cc(-c2cccc(NC(=O)N[C@@H]3c4cc(C#N)ccc4OC(C)(C)[C@H]3O)c2)on1`, the melting point was in the range of 140 to 148 °C.

The compound `N#CCCc1cncnc1N[C@H]1CC[C@@H](c2ccccc2)CC1` showed a melting point of 58 to 59 °C.

Turning to `Clc1ccc(-c2nnnn2Cc2cccnc2)cc1Cl`, the melting point lay in the range of 166 to 168 °C.

Regarding `CCSc1cccc2c1C(=O)c1cccc(SCC)c1C2=O`, the melting point fell in the range of 235 to 236 °C.

For `O=C(C=C1CCCN1)c1cccs1`, the melting point lay in the range of 149 to 150 °C.

In turn, `CCCOc1ccc(S(=O)(=O)N2CCN(CC)CC2)cc1-c1nc2cc3nc[nH]c3cc2c(=O)[nH]1` displayed a melting point of 194 to 196 °C.

Regarding `COc1cc(C2c3cc4c(cc3C(NC3=CC(=O)N(C)C3=O)C3COC(=O)C23)OCO4)cc(OC)c1O` (configuration not stated), the melting point lay within 238 to 241 °C.

For `O=C(O)c1ccc(NCc2ccccc2)cc1`, the melting point lay in the range of 165 to 168 °C.

The compound `Cc1c(Cc2ccncc2)nnc(Nc2ccc(Cl)cc2)c1C` returned a melting point of 196 to 199 °C.

The compound `Nc1ccccc1N1CCN(C=O)CC1` came in with a melting point of 129 to 133 °C.

In turn, `CS(=O)(=O)NCCn1c(=O)c(-c2cccs2)nc2ccccc21` gave a melting point of 236 to 237 °C.

Compound `CS(=O)(=O)n1cc(F)c(=O)[nH]c1=O` gave a melting point of 223 to 224 °C.

`Cc1cc(C)cc(Nc2ccc(Nc3ccccc3)c3c2C(=O)c2ccccc2C3=O)c1` showed a melting point of 220 °C.

Turning to `NC(=O)CCn1c2ccc(O)cc2c2c3c(c(-c4c(Cl)cccc4Cl)cc21)C(=O)NC3=O`, the melting point fell in the range of 327 to 329 °C.

The compound `N#Cc1cnc2c(c1Cl)C=C1N=CN=C1C2` had a melting point of over 300 °C.

In turn, `CN1C(=O)Cc2cc(Br)cnc21` had a melting point of 149 °C.

On to `CCCP(=O)(O)CC(=O)CNCc1ccccc1`, for which the melting point fell in the range of 155 to 157 °C.

`CS(=O)(=O)c1ccc(-c2cc3n(c2-c2ccc(F)cc2)CCC3)cc1`: the melting point came to 154 °C.

As to `N#Cc1nn(-c2c(Cl)cc(C(F)(F)F)cc2Cl)c(N)c1-c1cccc([N+](=O)[O-])c1`, the melting point was in the range of 212 to 214 °C.

The compound `Cc1c(NC(=O)c2ccc(-c3ccc(F)cc3)cc2)ccc2cc(CN3CCC(CC(=O)N(C)C)CC3)cnc12` registered a melting point of 200 to 201 °C.

In the case of `O=C(COc1cc(Cl)c(Cl)cc1Cl)OCNC(=O)Oc1ccccc1Cl`, the melting point came to 119 °C.

`O=c1ccn([C@@H]2C[C@H](O)[C@@H](O)[C@H]2O)cc1` (racemic) registered a melting point of 186 to 188 °C.

In the case of `Nc1cnc(-c2cccc(Cl)c2Cl)c(N)n1`, the melting point lay within 169 to 170 °C.

The compound `CCOc1cc([N+](=O)[O-])ccc1NC(C)=O` gave a melting point of 164 to 165 °C.

Compound `Nc1ccccc1C(=O)Nc1ccc(Br)c(C(F)(F)F)c1` came in with a melting point of 142 to 144 °C.

`C=C(CC)C(=O)c1cc2c(c(Cl)c1Cl)OC(C(=O)O)C2` (configuration not stated) registered a melting point of 148 °C.

`Cc1ccc2nc(C3(c4ccc(S(N)(=O)=O)cc4)C=C(C(F)(F)C(F)(F)F)NN3)sc2c1` (configuration not stated) displayed a melting point of 234 to 235 °C.

With `CCS(=O)CCON=Cc1nn(-c2c(Cl)cc(C(F)(F)F)cc2Cl)c(N)c1S(C)=O` (configuration not stated), the melting point was 144 to 148 °C.

Take `O=C(NCc1ccccn1)Nc1cc(NC(=O)c2ccccc2)ccn1`: the melting point lay in the range of 222 to 223 °C.

In turn, `CCC1Nc2c(cc(C)nc2C)N1c1ccc(CCNC(=O)NS(=O)(=O)c2ccc(C)cc2)cc1` (configuration not stated) gave a melting point of 143 °C.

`CCC(=O)NC[C@H]1CN(c2ccc3c(c2)CCCc2cnoc2-3)C(=O)O1` yielded a melting point of 185 to 186 °C.

For the compound `CC1(C)COC(=O)C(C(=O)Nc2cccc(C(F)(F)F)c2)C1=O` (configuration not stated), the melting point was over 200 °C.

Compound `COc1cc(OC)c(C(=O)CC(=O)c2cc(OC)c(OC)c(OC)c2)cc1OC` displayed a melting point of 154 to 156 °C.

`COc1cc(C=CCO)ccc1OCc1ccccc1` returned a melting point of 81 to 82 °C.

`COC(=O)CNC(=O)[C@H](CSC(=O)c1ccccc1)NC(=O)CNC(=S)CC(=O)c1ccccc1`: the melting point is 181 to 183 °C.

In the case of `CCCn1nc(C(C)C)c(C(=O)O)c1Cc1ccc(-c2ccccc2C(=O)O)cc1`, the melting point was in the range of 226 to 230 °C.

`CC(=O)Nc1nc(CCc2ccc(CCl)cc2)c(Cc2ccc(S(C)(=O)=O)cc2)s1` showed a melting point of 202 to 203 °C.

As for `Nc1nc2c(ncn2C2CC(CO)C2CO)c(=O)[nH]1` (configuration not stated), the melting point fell in the range of 91 to 92 °C.

`COc1ccccc1Oc1c(NS(=O)(=O)c2ccc(C(C)(C)C)cc2)nc(NCCN(C)C)nc1OCCOc1ncc(Br)cn1` returned a melting point of 129 to 132 °C.

The compound `CCCCOCCOc1ccc(-c2ccc(N3CCC(=O)C3)c(C=C(C)C(=O)OCC)c2)cc1` yielded a melting point of 98.5 to 99 °C.

With `OC(Cn1cncn1)(OCCOc1ccc(Cl)cc1Cl)c1ccc(Cl)cc1Cl` (configuration not stated), the melting point was 88 to 90 °C.

On to `C#CCC1(c2ccccc2)Cc2cc(OCC(=O)O)c(Cl)c(Cl)c2C1=O` (configuration not stated), for which the melting point lay in the range of 236 to 240 °C.

The compound `CC(C)(C)OC(=O)Nc1ccc(C#Cc2ccc(F)cc2F)cc1N` had a melting point of 113 to 116 °C.

`COC(=O)NC=Cc1ccc(OCC(O)CNC(C)C)cc1` (configuration not stated) came in with a melting point of 128 to 129 °C.

Consider `CC(C)N1OCCC(C(O)c2cc(C(C)(C)C)c(O)c(C(C)(C)C)c2)C1=O` (configuration not stated), for which the melting point lay in the range of 150 to 153 °C.

Consider `CCOC(=O)CCCCC(=O)c1ccc2cc(OCCC(C)C)ccc2c1`, for which the melting point lay within 65 to 66 °C.

For `COc1ccc(CN2CCC(c3cn(Cc4ccco4)c4ccccc34)CC2)cc1C(=O)O`, the melting point fell in the range of 237 to 238 °C.

`COc1cccc(NC(C)=O)c1C(=O)NC1CCN(C(C)CC(C(=O)N(C)C)(c2ccccc2)c2ccccc2)CC1O` (configuration not stated): the melting point was found to be 146 °C.

On to `COC(=O)c1ccc(C(=O)c2cccnc2)cc1`, for which the melting point is 144 to 146 °C.

As to `N#Cc1ccccc1-c1ccc(CNc2cc(Cl)nc3ccnn23)cc1`, the melting point is 162 to 163 °C.

For `CC(C)[C@H](NC(=O)OCc1ccccc1)C(=O)N[C@@H](Cc1ccccc1)[C@@H](O)[C@@H](O)[C@H](Cc1ccccc1)NC(=O)OC(C)(C)C`, the melting point lay in the range of 178 to 182 °C.

With `Cc1ccc2c(c1)C(C(=O)Nc1c(C)cccc1C)c1ccccc1CO2` (configuration not stated), the melting point lay within 162 to 163 °C.

As for `N#Cc1ccc(F)cc1-c1ccc(F)cc1`, the melting point was 111 to 113 °C.

`N#Cc1cccc(C2C3=C(CCS3)NC3=C2C(=O)CCC3)c1` (single isomer, unassigned; (+)) had a melting point of over 250 °C.

`Cc1nn(C)c2c(=O)[nH]cnc12` returned a melting point of 303 to 305 °C.

In turn, `COc1cccc2c1nc(C(F)F)n2-c1nc(Nc2ccc(N(C)S(C)(=O)=O)nc2)nc(N2CCOCC2)n1` displayed a melting point of 250 to 253 °C.

`CNS(=O)(=O)c1ccccc1Nc1nc(Nc2ccc3c(c2)CCCC(=O)N3CC(=O)OC)ncc1Cl` registered a melting point of 237 to 239 °C.

In the case of `Cc1ccc(Nc2c(C)cc(Cl)cc2Cl)c(CC(=O)O)c1`, the melting point lay within 137 to 141 °C.

`COC(=O)c1ccc(Cn2ccn(C3CCc4ccccc4C3)c2=S)cc1` (configuration not stated) had a melting point of 133 to 135 °C.

In turn, `O=C1c2c(O)ccc(O)c2C(=O)c2c(NCCNCCO)ccc(O)c21` had a melting point of 196 to 198 °C.

Compound `CCCc1c(OCCCCCCCC(=O)NCCCCc2cccnc2)ccc(C(C)=O)c1O` came in with a melting point of 48 to 51 °C.

As for `CC1=N/C(=C\c2c[nH]c3ncccc23)C(=O)N1Cc1ccccc1`, the melting point lay within 274 to 275 °C.

The compound `NS(=O)(=O)c1cc2ccc(O)cc2o1` showed a melting point of 185 to 187 °C.

`CCC(CC)O[C@@H]1C=C(C(=O)OC)C[C@H](CC(O)CO)[C@H]1NC(C)=O` (some centres not stated) displayed a melting point of 125 to 126 °C.

For `COC(=O)c1cccc(C)c1/C=C/Cc1c(OC)c(C)c2c(c1OC(C)=O)C(=O)OC2`, the melting point is 104 to 111 °C.

`CN(C)c1c(CC(=O)O)cccc1C(=O)c1ccccc1` showed a melting point of 144 to 146 °C.

Consider `CC1(C)CC(=O)C2(CCC(=O)O)CC1C2`, for which the melting point fell in the range of 90 to 93 °C.

`CCOP(=O)(CC1(O)CC=Cc2ccccc21)OCC` (configuration not stated) showed a melting point of 120 to 121 °C.

Compound `N#Cc1cnc2sc(-c3ccccc3)cc2c1NCCc1c[nH]cn1` returned a melting point of over 245 °C.

Regarding `C=CC(=O)NC[C@H](O)[C@@H](O)[C@H](O)[C@H](O)CO`, the melting point was in the range of 122 to 123 °C.

As for `Cn1nnc(-c2cc(-c3ccc(F)cc3)sc2-c2ccc(F)cc2)n1`, the melting point fell in the range of 150 to 152 °C.

Take `NC(=O)[C@H](CO)NC(=O)c1cccc(NS(=O)(=O)CC2CN(C(c3ccc(Cl)cc3)c3ccc(Cl)cc3)C2)c1`: the melting point is 245 to 247 °C.

With `COc1cc(OCC2CCCO2)ccc1/C=C/C(=O)CC(=O)/C=C/c1ccc2cc[nH]c2c1` (configuration not stated), the melting point is 159 to 161 °C.

The melting point is the temperature, or range, at which the solid turns liquid.
